The record followed here is patent publication US6172099A, “Tricyclic compounds having saturated rings and medicinal compositions containing the same” (Asahi Kasei Kogyo Kabushiki Kaisha, priority 1997, dated 2001).

Where a name gives a salt, the structure may show the parent alone. Read-outs that look alike come from different tables or passages of the source.

For one data set, the target named is T1, human β3 (Homo sapiens, UniProt P13945).
T1 construct: inserted the 1st exon of human β3 gene was transfected; expressed in transfected cells; host or cells: CHO cells (Chinese hamster ovary), pcDNA3 vector
In words: Human β3-agonist activity (cAMP accumulation in CHO cells transfected with human β3 gene). In kind it is cell-based. As for the experimental part: Human β3-agonist Activity Human β3-agonist activity was examined using CHO cells (chinese hamster ovarian cells) to which pcDNA3 (in vitrogen) inserted the 1st exon of human β3 gene was transfected. Human β3 fragment was obtained by PCR using human fat tissue cDNA (supplied from Clontech) with a […] [Krief et al, J. Clin. Invest., Vol. 91, p344-349 (1993)]. And then full length of human […] was cloned using this fragment as a probe.
The cells were cultured in a HAM F-12 medium containing 10% of fetal bovine serum, 400 μg/ml of Geneticin (Gibco BRL), 100 U/ml penicillin and 100 μg/ml streptomycin. 5×10^5 cells were placed on a 6-well plate and cultured for 24 hours, after which the medium was changed to a HAM F-12 medium without serum and was kept for 2 hours. Each test compound was first dissolved in DMSO, and then diluted with a HAM F-12 medium containing 1 mM isobutylmethyl xanthine and 1 mM ascorbic acid. A 10-fold dilution in the range of 10^-5 to 10^-12 M was added into the cells.
After culturing for 30 minutes, culture medium was withdrawn, 0.5 ml of 1 N NaOH was added and was kept for 20 minutes. Ater then 0.5 ml of 1 N acetic acid was added with subsequent agitation and centrifugation. Finally, concentration of cAMP were analyzed using cAMP EIA KIT (Cayman). […] CL316,243 was synthesized by the method given in J. Med. Chem., Vol. 35, p3081-3084 (1992).
On the technique in general: Cyclic AMP is a second messenger, typically raised through Gs and lowered through Gi signalling.

The nature of data set [1]: Blood glucose lowering effect in glucose-loaded mice. In kind it is in vivo, male ddy mice. Particulars: intraperitoneal, 10 mg/kg; 1 hour; glucose load 2 g/kg s.c. On the procedure: Blood Glucose Lowering Effect and Lipolytic Effect
Glucose was subcutaneously administered to male ddy mice (supplied from the dirm Nippon Charles Liver) of 6 weeks age at a dose of 2 g/kg. The animals were also treated with either one of test compounds via oral or intraperitoneal administration at a dose of 0.1 ml per 10 g of body weight. After one hour, blood sample was taken from abdominal aorta, serum was separated and served as the sample.
Blood Glucose Lowering Effect:
The samples prepared as above were analyzed for the serum glucose concentration by Auto analyzer (SUPER Z of the firm M. C. Medical). For the analyzer kit, Glucose 11 HA TEST WAKO (of the firm Wako Pure Chemical) was used.
% decrease in blood glucose=[(A-B)/(A-C)]×100
in whcih A represents the glucose concentration after loading glucose, B represents the glucose concentration after administration of the compound and C is the usual level of the glucose concentration.

On the set-up of data set [2]: species or system male ddy mice. Particulars: mouse, in vivo, po, 100 mg/kg. As for the experimental part:
The compounds of Example 2 was orally administered to 6 weeks age male ddy mice (supplied from the firm Nippon Chrles Liver) at a dose of 100 mg/kg.

A further data set relates to rat adipocytes. Put plainly: Lipolytic activity in rat adipocytes (glycerol concentration). Particulars: Adipocyte; for EC50: rat adipocytes, glycerol release, 37° C., 1 hour, read-out: ED50 (the source's name); for Emax: Rattus norvegicus, 1 h, read-out: Intrinsic activity(%). The format is cell-based. On the procedure: Lipolytic Activity in Rat Adipocytes Adipose tissues were collected from epididymis and minced. Krebs-Ringer buffer solution containing 1 mg/ml Collagenase (Sigma) and 1% of bovine serum albumin was added in an amount of 3 ml per one gram of the tissue. These cells were then incubated at 37° C. for 30 minutes with shaking and then undigested tissues were removed with a nylon filter. The resulting adipocytes were washed four times with Krebs-Ringer buffer, and then cells was diluted to 2×10^5 cells/ml with Krebs-Ringer buffer solution containing 4% of bovine serum albumin. These cells were transferred to Eppendorf tubes each in an amount of 300 μl. Each 300 μl of a culture medium containing the test compounds was added to these tubes and was held at 37° C. for 1 hour with shaking. Stimulation was stopped by cooling with ice. After centrifugation, the adipocytes were taken off with an aspirator, and then the concentration of glycerol was determined using F-KIT GLYCEROL (Behringer-Manheim).

Data set [3] in a line: Lipolytic effect in mice (serum free fatty acid). The settings on record: intraperitoneal, 10 mg/kg; 1 hour. In kind it is in vivo, male ddy mice. As for the experimental part: Blood Glucose Lowering Effect and Lipolytic Effect Glucose was subcutaneously administered to male ddy mice (supplied from the dirm Nippon Charles Liver) of 6 weeks age at a dose of 2 g/kg. […] After one hour, blood sample was taken from abdominal aorta, serum was separated and served as the sample. Lipolytic Effect: Amount of free fatty acid in the samples was determined using NEFA HA TEST WAKO (of the firm Wako Pure Chemical). […] Therefore, it was shown that they are useful for preventive and therapeutic treatment of hyperlipemia and obesity.

Setting [4] is: CHO cells expressing human β3, cAMP, 30 minutes; read-out: ED50 (the source's name).
[5] abbreviates: CHO, read-out: Intrinsic activity(%).

T1 sequence (P13945 1-402 limits assumed): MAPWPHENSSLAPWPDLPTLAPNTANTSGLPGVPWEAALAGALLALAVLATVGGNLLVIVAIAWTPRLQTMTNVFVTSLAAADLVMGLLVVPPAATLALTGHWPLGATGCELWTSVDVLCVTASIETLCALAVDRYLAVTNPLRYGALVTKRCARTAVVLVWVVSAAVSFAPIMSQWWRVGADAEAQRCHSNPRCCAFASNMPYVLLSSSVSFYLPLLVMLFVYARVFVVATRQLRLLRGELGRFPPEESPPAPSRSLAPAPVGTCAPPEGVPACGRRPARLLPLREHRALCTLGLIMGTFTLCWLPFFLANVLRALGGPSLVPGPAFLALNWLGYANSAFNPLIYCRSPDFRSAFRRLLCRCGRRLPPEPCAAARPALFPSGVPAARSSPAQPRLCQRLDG

Take `CS(=O)(=O)Nc1cc(C(O)CNCCOc2ccc3c4c([nH]c3c2)CCCC4)ccc1Cl` (racemic) [Example 14, (±)-N-[5-[2-[2-(5,6,7,8-tetrahydro-9H-carbazol-2-yloxy)ethylamino]-1-hydroxyethyl]-2-chlorophenyl]methanesulfonamide hydrochloride]: on human β3 (setting [4]), the EC50 worked out at 25 nM. The Emax at human β3 (setting [5]) was determined as 62%.
For `CS(=O)(=O)Nc1cccc(C(O)CNCCOc2ccc3c4c([nH]c3c2)CCCC4)c1` (racemic) [Example 17, (±)-N-[3-[2-[2-(5,6,7,8-tetrahydro-9H-carbazol-2-yloxy)ethylamino]-1-hydroxyethyl]phenyl]methanesulfonamide hydrochloride], in that order: 92 nM and 78%.
For the compound `C[C@H](Cc1ccc(OCC(=O)O)cc1)NC[C@H](O)c1cccc(Cl)c1` [BRL37344, reference compound], the Emax on human β3 (CHO; read-out: Intrinsic activity(%)) turned out to be 29%.
Consider `CN(C)S(=O)(=O)Nc1cc([C@@H](O)CNCCOc2ccc3c4c([nH]c3c2)CCCC4)ccc1O.Cl` [Example 2, (R)-N'-[5-[2-[2-(5,6,7,8-tetrahydro-9H-carbazol-2-yloxy)ethylamino]-1-hydroxyethyl]-2-hydroxyphenyl]-N,N-dimethylsulfamide hydrochloride], for which the EC50 was 0.26 nM at human β3 (setting [4]) and 2000 nM with rat adipocytes. Moreover, the values for the Emax on human β3 (setting [5]) and in the data set on rat adipocytes were 63% and 127%, respectively. Further, in data set [1], the “reduction of blood glucose” value is given as “showed a reduction of blood glucose”. Further, the fatal cases entry in data set [2] is given as “no fatal case was found”. Further, in data set [3], the “increase of free fatty acid concentration” value is reported as “showed an increase of free fatty acid concentration”.
Turning to `CS(=O)(=O)Nc1cc([C@@H](O)CNCCOc2ccc3c4c([nH]c3c2)CCCC4)ccc1OCc1ccccc1` [Example 5, (R)-N-[5-[2-[2-(5,6,7,8-tetrahydro-9H-carbazol-2-yloxy)ethylamino]-1-hydroxyethyl]-2-benzyloxyphenyl]methanesulfonamide hydrochloride], the EC50 at human β3 (setting [4]) came to 570 nM. Also, the Emax at human β3 (setting [5]) was 101%.
On to `CS(=O)(=O)Nc1cc([C@@H](O)CNCCOc2ccc3c4c([nH]c3c2)CCCC4)ccc1O` [Example 6, (R)-N-[5-[2-[2-(5,6,7,8-tetrahydro-9H-carbazol-2-yloxy)ethylamino]-1-hydroxyethyl]-2-hydroxyphenyl]methanesulfonamide hydrochloride], for which the EC50 was 0.021 nM at human β3 (setting [4]) and 200 nM with rat adipocytes. Also, the Emax at human β3 (setting [5]) was determined as 84%; in the data set with rat adipocytes, 132%.
As to `CS(=O)(=O)Nc1cc([C@@H](O)CNCCOc2ccc3c4c([nH]c3c2)CCCC4)ccc1F` [Example 9, (R)-N-[5-[2-[2-(5,6,7,8-tetrahydro-9H-carbazol-2-yloxy)ethylamino]-1-hydroxyethyl]-2-fluorophenyl]methanesulfonamide hydrochloride], on human β3 (setting [4]), the EC50 was found to be 29 nM. At human β3 (setting [5]), the Emax amounted to 47%.
Taken in the same sequence, the figures for `CS(=O)(=O)Nc1cc([C@@H](O)CNCCOc2ccc3c4c([nH]c3c2)CCCC4)ccc1Br` [Example 15, (R)-N-[5-[2-[2-(5,6,7,8-tetrahydro-9H-carbazol-2-yloxy)ethylamino]-1-hydroxyethyl]-2-bromophenyl]methanesulfonamide hydrochloride] were 40 nM and 72%.
Taken in the same sequence, the figures for `CN(C)S(=O)(=O)Nc1cc([C@@H](O)CNCCOc2ccc3c4c(oc3c2)CCCC4)ccc1O` [Example 22, (R)-N'-[5-[2-[2-(6,7,8,9-tetrahydrodibenzofuran-3-yloxy)ethylamino]-1-hydroxyethyl]-2-hydroxyphenyl]-N,N-dimethylsulfamide hydrochloride] were 27 nM and 84%.
On to `CS(=O)(=O)Nc1cc([C@@H](O)CNCCOc2ccc3c4c(oc3c2)CCCC4)ccc1O` [Example 26, (R)-N-[5-[2-[2-(6,7,8,9-tetrahydrodibenzofuran-3-yloxy)ethylamino]-1-hydroxyethyl]-2-hydroxyphenyl]methanesulfonamide hydrochloride], for which the EC50 at human β3 (setting [4]) was found to be 31 nM; with rat adipocytes it was 39 nM. Further, the Emax was determined as 111% at human β3 (setting [5]) and 118% in the data set on rat adipocytes.
Taken in the same sequence, the figures for `CS(=O)(=O)Nc1cc([C@@H](O)CNCCOc2ccc3c4c(sc3c2)CCCC4)ccc1O` [Example 28, (R)-N-[5-[2-[2-(6,7,8,9-tetrahydrodibenzothiophen-3-yloxy)ethylamino]-1-hydroxyethyl]-2-hydroxyphenyl]methanesulfonamide hydrochloride] were 0.11 nM, 400 nM, 96% and 140%.
On to `CC(C)NCC(O)c1ccc(O)c(O)c1` (stereo not shown) [isoproterenol, reference compound], for which, in the data set with rat adipocytes, the EC50 was 92 nM and the Emax amounted to 100%.
